In BindingDB's records for doi:10.1021/acs.jmedchem.8b00370 (Genentech, 2018):

Target: Mitogen-activated protein kinase kinase kinase 12 (Homo sapiens) (UniProt Q12852)
Assay: Inhibition of DLK (unknown origin) using myelin basic protein as substrate preincubated for 15 mins measured after 30 mins in presence of [gamma-32P]ATP by scintillation counting

Sequence of Mitogen-activated protein kinase kinase kinase 12 (Homo sapiens) (Q12852 whole entry, looked up): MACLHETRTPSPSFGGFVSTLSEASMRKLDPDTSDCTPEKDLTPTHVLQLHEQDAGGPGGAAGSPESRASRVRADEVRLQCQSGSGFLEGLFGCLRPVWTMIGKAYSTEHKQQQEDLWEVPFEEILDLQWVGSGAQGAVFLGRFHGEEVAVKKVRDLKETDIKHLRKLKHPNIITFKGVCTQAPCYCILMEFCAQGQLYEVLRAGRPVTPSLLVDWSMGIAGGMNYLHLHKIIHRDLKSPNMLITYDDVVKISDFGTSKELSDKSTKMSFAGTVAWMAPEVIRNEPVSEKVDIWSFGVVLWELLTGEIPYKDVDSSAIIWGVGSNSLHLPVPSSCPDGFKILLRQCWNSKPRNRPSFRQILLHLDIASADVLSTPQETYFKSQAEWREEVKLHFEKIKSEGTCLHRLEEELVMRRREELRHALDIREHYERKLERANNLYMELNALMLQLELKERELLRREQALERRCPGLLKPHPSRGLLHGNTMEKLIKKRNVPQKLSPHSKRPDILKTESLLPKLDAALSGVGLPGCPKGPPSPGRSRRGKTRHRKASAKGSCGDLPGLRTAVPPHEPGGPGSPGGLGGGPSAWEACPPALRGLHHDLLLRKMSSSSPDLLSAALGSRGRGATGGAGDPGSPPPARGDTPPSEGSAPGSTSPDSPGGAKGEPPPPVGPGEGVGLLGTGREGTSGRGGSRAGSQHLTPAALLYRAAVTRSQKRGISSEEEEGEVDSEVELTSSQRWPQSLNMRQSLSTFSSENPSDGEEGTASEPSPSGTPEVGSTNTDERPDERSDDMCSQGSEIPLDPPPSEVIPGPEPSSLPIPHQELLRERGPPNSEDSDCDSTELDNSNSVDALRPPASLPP

CC(C)n1c2ccc(Oc3ncccn3)cc2c2c3c(c4c(c21)CCc1nn(C)cc1-4)C(=O)NC3
IC50: 1 nM
